Measurements from paper PMC9611727, “Optimization of a Novel Mandelamide-Derived Pyrrolopyrimidine Series of PERK Inhibitors” (Pharmaceutics, 2022).

Columns and labels:
Test in all cases: scanMAX kinase panel
Assay type in all cases: binding
Details in all cases: read-out: % Control; for remaining binding at 1 µM: 1000 nM
VRK2 = target: T1, VRK2 (Homo sapiens, UniProt Q86Y07)
T1 construct: purchased DiscoverX (scanMAX panel)
Description: (§1) Supplemental Table S2. scanMAXSM Kinome Assay Results. Complete tabulated data of all 468 kinases from the panel, including
(§2) 403 wild-type and 65 mutant isoforms. […] Cmpd 11 and Cmpd 24

YSK4 = target: T2, YSK4 (Homo sapiens, UniProt Q56UN5)
T2 construct: purchased DiscoverX (scanMAX panel)
T2 sequence (Q56UN5 1-1328): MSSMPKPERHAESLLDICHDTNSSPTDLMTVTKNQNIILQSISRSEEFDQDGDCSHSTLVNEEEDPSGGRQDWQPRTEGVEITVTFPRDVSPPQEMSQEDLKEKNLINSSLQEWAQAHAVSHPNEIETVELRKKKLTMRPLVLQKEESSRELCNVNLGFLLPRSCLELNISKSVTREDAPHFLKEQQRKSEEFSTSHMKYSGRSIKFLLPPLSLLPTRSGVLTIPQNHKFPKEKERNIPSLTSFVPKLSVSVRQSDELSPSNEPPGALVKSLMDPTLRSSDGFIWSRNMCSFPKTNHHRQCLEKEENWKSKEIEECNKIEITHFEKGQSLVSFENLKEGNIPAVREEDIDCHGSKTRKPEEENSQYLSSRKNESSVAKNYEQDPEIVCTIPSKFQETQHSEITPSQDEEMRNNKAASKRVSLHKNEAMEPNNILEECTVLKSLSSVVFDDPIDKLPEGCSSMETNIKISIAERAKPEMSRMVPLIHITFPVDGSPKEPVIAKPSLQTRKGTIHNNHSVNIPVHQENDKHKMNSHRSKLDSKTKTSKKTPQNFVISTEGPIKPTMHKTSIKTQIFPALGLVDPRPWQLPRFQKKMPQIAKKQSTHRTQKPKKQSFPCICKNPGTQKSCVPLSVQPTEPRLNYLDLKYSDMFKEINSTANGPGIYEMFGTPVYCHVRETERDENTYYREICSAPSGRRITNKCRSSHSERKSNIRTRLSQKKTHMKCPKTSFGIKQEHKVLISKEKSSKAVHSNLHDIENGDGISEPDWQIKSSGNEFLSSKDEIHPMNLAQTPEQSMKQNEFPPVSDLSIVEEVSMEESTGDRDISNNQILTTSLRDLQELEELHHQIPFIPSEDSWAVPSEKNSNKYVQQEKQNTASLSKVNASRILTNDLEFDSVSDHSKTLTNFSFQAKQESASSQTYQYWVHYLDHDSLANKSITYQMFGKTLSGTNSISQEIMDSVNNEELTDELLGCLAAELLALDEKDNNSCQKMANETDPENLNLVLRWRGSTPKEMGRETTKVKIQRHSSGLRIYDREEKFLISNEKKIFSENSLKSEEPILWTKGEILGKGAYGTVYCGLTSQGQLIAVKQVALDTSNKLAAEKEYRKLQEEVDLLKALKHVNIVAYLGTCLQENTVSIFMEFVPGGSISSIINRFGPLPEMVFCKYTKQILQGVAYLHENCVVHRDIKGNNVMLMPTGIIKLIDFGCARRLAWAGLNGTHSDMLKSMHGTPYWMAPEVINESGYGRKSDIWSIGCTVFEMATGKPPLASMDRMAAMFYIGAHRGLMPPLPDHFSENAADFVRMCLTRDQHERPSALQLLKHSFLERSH
Description: as §1, §2

FLT3(D835Y) = target: T3, FLT3(D835Y) (Homo sapiens, UniProt P36888, D835Y)
T3 construct: purchased DiscoverX scanMAX
T3 sequence (P36888 27-993 D835Y): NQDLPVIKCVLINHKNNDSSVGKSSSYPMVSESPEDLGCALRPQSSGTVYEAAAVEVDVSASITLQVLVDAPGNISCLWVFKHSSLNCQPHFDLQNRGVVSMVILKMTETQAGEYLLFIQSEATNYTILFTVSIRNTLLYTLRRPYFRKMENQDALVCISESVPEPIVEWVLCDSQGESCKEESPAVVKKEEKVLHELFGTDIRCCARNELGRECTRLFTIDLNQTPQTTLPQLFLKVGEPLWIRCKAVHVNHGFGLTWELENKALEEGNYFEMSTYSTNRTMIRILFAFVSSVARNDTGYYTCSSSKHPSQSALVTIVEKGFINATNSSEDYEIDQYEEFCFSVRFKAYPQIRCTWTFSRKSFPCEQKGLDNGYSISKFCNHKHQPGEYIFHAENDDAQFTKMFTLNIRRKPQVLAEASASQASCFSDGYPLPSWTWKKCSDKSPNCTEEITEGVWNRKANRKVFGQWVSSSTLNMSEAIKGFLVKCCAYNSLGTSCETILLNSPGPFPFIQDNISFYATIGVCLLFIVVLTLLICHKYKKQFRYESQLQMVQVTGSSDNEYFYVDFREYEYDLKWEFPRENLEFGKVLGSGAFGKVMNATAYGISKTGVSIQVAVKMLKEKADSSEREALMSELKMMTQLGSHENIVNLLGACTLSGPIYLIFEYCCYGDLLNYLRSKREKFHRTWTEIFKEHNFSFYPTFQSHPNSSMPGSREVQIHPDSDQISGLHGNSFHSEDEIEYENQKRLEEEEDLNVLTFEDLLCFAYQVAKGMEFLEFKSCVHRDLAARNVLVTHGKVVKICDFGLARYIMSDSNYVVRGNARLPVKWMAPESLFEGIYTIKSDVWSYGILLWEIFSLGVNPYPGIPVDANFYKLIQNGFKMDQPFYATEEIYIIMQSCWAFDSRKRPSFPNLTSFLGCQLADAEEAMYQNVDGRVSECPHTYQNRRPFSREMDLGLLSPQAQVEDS
Description: as §1, §2

MEK5 = target: T4, MEK5 (Homo sapiens, UniProt Q13163)
T4 construct: purchased DiscoverX scanMAX
T4 sequence (Q13163 1-448): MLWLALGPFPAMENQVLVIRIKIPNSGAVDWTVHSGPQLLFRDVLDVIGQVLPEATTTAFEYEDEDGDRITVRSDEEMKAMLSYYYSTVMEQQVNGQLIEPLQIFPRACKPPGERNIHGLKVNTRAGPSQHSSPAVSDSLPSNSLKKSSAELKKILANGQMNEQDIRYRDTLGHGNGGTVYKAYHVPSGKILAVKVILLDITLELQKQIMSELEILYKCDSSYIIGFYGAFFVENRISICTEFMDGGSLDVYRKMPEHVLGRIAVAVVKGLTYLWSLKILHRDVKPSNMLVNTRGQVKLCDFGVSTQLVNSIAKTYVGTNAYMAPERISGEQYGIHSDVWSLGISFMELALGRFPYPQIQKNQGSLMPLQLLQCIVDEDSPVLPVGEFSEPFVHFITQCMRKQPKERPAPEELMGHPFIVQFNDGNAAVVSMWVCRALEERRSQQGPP
Description: as §1, §2

KIT(L576P) = target: T5, KIT(L576P) (Homo sapiens, UniProt P10721, L576P)
T5 construct: purchased DiscoverX scanMAX
Description: as §1, §2

T5 sequence (P10721 26-976 L576P): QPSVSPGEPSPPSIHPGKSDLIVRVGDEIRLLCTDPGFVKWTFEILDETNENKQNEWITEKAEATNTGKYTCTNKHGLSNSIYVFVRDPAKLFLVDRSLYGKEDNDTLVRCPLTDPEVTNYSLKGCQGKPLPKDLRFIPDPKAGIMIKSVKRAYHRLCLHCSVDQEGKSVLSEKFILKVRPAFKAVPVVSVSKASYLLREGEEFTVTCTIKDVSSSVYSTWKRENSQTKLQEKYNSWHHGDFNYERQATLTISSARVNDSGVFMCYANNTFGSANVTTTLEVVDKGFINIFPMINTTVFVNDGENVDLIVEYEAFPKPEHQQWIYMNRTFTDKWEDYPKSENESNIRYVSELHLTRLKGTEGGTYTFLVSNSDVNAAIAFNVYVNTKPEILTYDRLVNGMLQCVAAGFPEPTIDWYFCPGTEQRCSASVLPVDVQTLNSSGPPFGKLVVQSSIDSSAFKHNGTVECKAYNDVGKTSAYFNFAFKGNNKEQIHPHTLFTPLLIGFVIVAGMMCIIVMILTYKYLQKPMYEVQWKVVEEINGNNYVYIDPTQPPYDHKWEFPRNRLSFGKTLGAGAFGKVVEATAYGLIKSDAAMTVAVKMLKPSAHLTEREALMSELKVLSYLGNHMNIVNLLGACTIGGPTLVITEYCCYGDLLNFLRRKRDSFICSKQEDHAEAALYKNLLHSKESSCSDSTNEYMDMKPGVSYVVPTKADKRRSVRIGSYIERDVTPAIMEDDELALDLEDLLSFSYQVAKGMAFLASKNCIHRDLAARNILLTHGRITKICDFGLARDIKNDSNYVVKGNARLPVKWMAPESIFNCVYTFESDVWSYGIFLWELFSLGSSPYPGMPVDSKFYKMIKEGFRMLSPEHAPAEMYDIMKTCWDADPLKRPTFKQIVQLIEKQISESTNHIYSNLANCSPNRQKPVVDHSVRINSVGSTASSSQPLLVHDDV
T1 sequence (Q86Y07 whole entry): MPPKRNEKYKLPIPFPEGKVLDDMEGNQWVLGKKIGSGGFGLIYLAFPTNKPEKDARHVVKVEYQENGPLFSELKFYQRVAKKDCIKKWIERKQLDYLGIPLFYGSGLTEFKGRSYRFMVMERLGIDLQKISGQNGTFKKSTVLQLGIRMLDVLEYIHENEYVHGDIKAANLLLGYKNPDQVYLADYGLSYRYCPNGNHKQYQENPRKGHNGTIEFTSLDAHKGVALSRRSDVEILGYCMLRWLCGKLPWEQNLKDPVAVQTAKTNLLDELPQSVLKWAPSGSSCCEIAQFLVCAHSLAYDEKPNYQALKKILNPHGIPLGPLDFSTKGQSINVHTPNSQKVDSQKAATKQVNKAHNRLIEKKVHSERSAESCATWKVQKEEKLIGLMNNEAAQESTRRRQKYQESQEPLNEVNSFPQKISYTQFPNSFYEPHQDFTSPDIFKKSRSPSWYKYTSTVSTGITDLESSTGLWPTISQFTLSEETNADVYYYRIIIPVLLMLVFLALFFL

Structure (SMILES)	remaining binding at 1 µM (VRK2)	remaining binding at 1 µM (YSK4)	remaining binding at 1 µM (FLT3(D835Y))	remaining binding at 1 µM (MEK5)	remaining binding at 1 µM (KIT(L576P))	remaining binding at 0.1 µM (VRK2; 100 nM)	remaining binding at 0.1 µM (YSK4; 100 nM)	remaining binding at 0.1 µM (FLT3(D835Y); 100 nM)	remaining binding at 0.1 µM (MEK5; 100 nM)	remaining binding at 0.1 µM (KIT(L576P); 100 nM)
Cc1cc(NC(=O)[C@H](O)c2cccc(F)c2)ccc1-c1cn(C)c2ncnc(N)c12 [Compound 11, (R)-N-(4-(4-amino-7-methyl-7H-pyrrolo[2,3-d]pyrimidin-5-yl)-3-methylphenyl)-2-(3-fluorophenyl)-2-hydroxy acetamide]	26%	18%	80%	1.1%	36%					
Cc1nc(N)c2c(-c3ccc(NC(=O)[C@H](O)c4cccc(F)c4)cc3C)cn(C)c2n1 [Compound 24]	100%	100%	96%	100%	98%					
Cc1nc(N)c2c(-c3ccc(NC(=O)[C@H](O)c4cccc(C(F)(F)F)c4)cc3C)cn(C)c2n1 [Compound 26]	78%	55%	35%	68%	2.6%	94%	95%	88%	100%	85%
